US20060166360A1, “Compositions, solutions, and methods used for transplantation” (The General Hospital Corporation, priority 2002, published 2006)
“Also recorded” adds a separate entry of the source.

How the values were obtained:
[1] = tested on: liver I/R injury in steatotic liver transplantation; assay: Serum ALT after fatty liver transplantation; assay type: in vivo, rat; conditions: donor GdCl3 pretreatment
Protocol: (§1) Donor animals were divided into three groups; heat shock preconditioning (HPc) group, sham HPc (Sham) group, and gadolinium chloride (GdCl3) group. In the HPc group, rats were anesthetized and placed in a waterproof bag that was then immersed in a 43° C. water bath to elevate the core body temperature (measured via a rectal digital thermometer) to 42-42.5° C. Animals were maintained at that temperature for 10 min and then removed from the warm bath. Animals then received 10 ml/kg intraperitoneal saline injection and were allowed to recover with free access to food and water. Animals in the Sham and GdCl3 groups underwent the same procedures except that they were immersed in a 37° C. bath (sham HPc). In the GdCl3 group, Kupffer cell deactivation was achieved by two 20 mg/kg GdCl3 (Sigma, St. Louis, Mo.) intravenous injection 48 and 24 hours before donor liver harvesting. In the Sham and HPc groups, sterile nonpyrogenic saline was used as instead of GdCl3 solution. Donor livers were harvested 24 hours after HPc or sham HPc. In some experiments, rats were pretreated with 5 mg/kg i.m. Cyclosporine A (CyA; Sigma) 6 hours before donor liver harvesting.
Isogenic orthotopic liver transplantation was performed as described by Kamada and Calne (Kamada et al., Transplantation 28:47-50, 1979). Donor livers were harvested 3, 6, 24, 48, or 72 hours after HPc. Briefly, the bile duct was cannulated with a short intraluminal polyethylene stent. […] The infrahepatic and suprahepatic vena cava, including part of the diaphragm, were transected. […] For survival studies, the animals were returned to standard housing facilities and monitored for up to one week. […]
(§2) To assess liver injury, alanine aminotransferase (ALT) was measured in serum samples using a commercially available kit (Sigma). TNF-α, IL-10, IL-4, IL-12, and IFN-γ levels in serum and cell culture supernatant were determined by Enzyme-linked immunosorbent assay (ELISA). […]

recipient rats = assay: Survival of recipient rats after fatty liver transplantation; assay type: in vivo, rat; conditions: up to 1 week after transplantation, vs Sham group
Protocol: as §1, with “In some experiments, rats were pretreated with 5 mg/kg i.m. Cyclosporine A (CyA; Sigma) 6 hours before donor liver harvesting.” left out
(§3) Isogenic orthotopic liver transplantation was performed as described by Kamada and Calne (Kamada et al., Transplantation 28:47-50, 1979). […] For survival studies, the animals were returned to standard housing facilities and monitored for up to one week. […]

[2] = tested on: transplanted fatty livers; assay: Histology of transplanted fatty livers; assay type: in vivo, rat; conditions: 3 hours after transplantation, compared to Sham group livers
Protocol: as §1, with “In some experiments, rats were pretreated with 5 mg/kg i.m. Cyclosporine A (CyA; Sigma) 6 hours before donor liver harvesting.” left out
as §3

[3] = tested on: liver CD4+ and CD8+ T cells; assay: Flow cytometry of liver T cells after transplantation; assay type: in vivo, rat; conditions: for CD3+CD4+ relative number of T cells in the liver / CD3+CD8+ relative number of T cells in the liver: mean ± SD
Protocol: as §1
Three hours or 24 hours after liver transplantation, transplanted liver were perfused with sterile PBS through the portal vein to wash out all remaining peripheral blood and then meshed with stainless steel mesh. After the coarse pieces were removed by centrifugation at 50 g for 1 min, the cell suspensions were again centrifuged, resuspended in 8 mL of 45% Percoll (Sigma), and layered on 5 mL of 67.5% Percoll. The gradients were centrifuged at 600 g at 20° C. for 20 min. Lymphocytes at the interface were harvested and washed twice with PBS. CD4^+ or CD8^+ T cells were purified by Rat T cell CD4 or CD8 column kit (R&D systems, Minneapolis, […].) from the harvested liver lymphocytes. The purity of sorted cells was more than 95%.
For 3-color analysis, liver lymphocytes were incubated with saturating amounts of phycoerythrin-conjugated anti-rat CD3α mAb (Pharmingen, San Diego, Calif.) and fluorescein isothiocyanate-conjugated anti-rat CD4 mAb (Pharmingen) for 30 min. Cells were analyzed with a FACSCalibur flow cytometer (Becton Dickinson, San Jose, Calif.). We carefully gated cells by forward and side light scattering for the liver lymphocytes. The data were analyzed using CyQuest software (Becton Dickinson).

IFN-γ mRNA = assay: RT-PCR of IFN-γ mRNA in purified liver T cells after transplantation; assay type: in vivo, rat; conditions: 24 hours after transplantation; donor GdCl3 pretreatment
Protocol: as §1
Three hours or 24 hours after liver transplantation, transplanted liver were perfused with sterile PBS through the portal vein to wash out all remaining peripheral blood and then meshed with stainless steel mesh. […]

[4] = tested on: IL-12p70, TNF-α and IL-10; assay: Serum cytokine levels (ELISA) after fatty liver transplantation; assay type: in vivo, rat; conditions: donor GdCl3 pretreatment
Protocol: as §1, with “In the Sham and HPc groups, sterile nonpyrogenic saline was used as instead of GdCl3 solution. Donor livers were harvested 24 hours after HPc or sham HPc. In some experiments, rats were pretreated with 5 mg/kg i.m. Cyclosporine A (CyA; Sigma) 6 hours before donor liver harvesting.” left out
as §3, §2

liver CD4+ T cells = assay: IFN-γ production by liver CD4+ T cells on anti-CD3 mAb-coated plates (ELISA); assay type: cell-based, rat; conditions: 24 hours after transplantation; donor GdCl3 pretreatment
Protocol: as §1
Liver lymphocytes were obtained by the same method previously described. […] IFN-γ and IL-4 levels in the culture supernatants were determined by ELISA.

HSP72 and HO-1 = assay: Western blot of HSP72 and HO-1 in hepatocytes, CD4+ and CD8+ T cells of donor fatty liver; assay type: in vivo, rat; conditions: at time of harvesting; GdCl3 20 mg/kg i.v. 48 and 24 hours before harvesting
Protocol: as §1
Donor rats were sacrificed up to 240 hours after HPc. […] Protein signals were visualized by chemiluminescence (Pierce, Rockford, Ill.) and recorded on a GS282 Scanner (BioRad, Hercules, Calif.).

[5] = tested on: intrahepatic neutrophil accumulation; assay: Myeloperoxidase content of liver tissue (neutrophil accumulation) after transplantation; assay type: in vivo, rat
Protocol: Donor animals were divided into three groups; heat shock preconditioning (HPc) group, sham HPc (Sham) group, and gadolinium chloride (GdCl3) group. In the HPc group, rats were anesthetized and placed in a waterproof bag that was then immersed in a 43° C. water bath to elevate the core body temperature (measured via a rectal digital thermometer) to 42-42.5° C. Animals were maintained at that temperature for 10 min and then removed from the warm bath. Animals then received 10 ml/kg intraperitoneal saline injection and were allowed to recover with free access to food and water. Animals in the Sham and GdCl3 groups underwent the same procedures except that they were immersed in a 37° C. bath (sham HPc). […]
as §3
The presence of myeloperoxidase (MPO), enzyme specific for neutrophil (and some macrophages), was used as an index of intrahepatic neutrophil accumulation. […] The change in absorbance was measured by spectrophotometry at 450 nm. One unit of MPO activity was defined as the quantity of enzyme degrading 1 μM peroxide per minute at 25° C. per gram of tissue.

steatotic hepatocytes = assay: Defatting of steatotic cultured hepatocytes with defatting media; assay type: cell-based, rat; conditions: for effect on the defatting process (fat reduction): agent added in high insulin containing media; for effect on the defatting process (lipid removal): agent added in low insulin-containing medium
Protocol: It has previously been shown that collagen-sandwiched adult rat hepatocytes which are seeded and maintained in standard hepatocyte culture medium and then exposed to either rat or human plasma become severely steatotic within 24 hours with a concomitant reduction in liver-specific functions (Matthew et al., Biotechnol. Bioeng. 51: 100-111, 1995; Stefanovich et al., J. Surg. Res. 66: 57-63, 1996).
In the next set of experiments, we induced steatosis in hepatocytes by exposing them to high insulin levels followed by plasma for 2 days, and attempted to defat them using the following conditions: plasma supplemented with amino acids and low insulin levels; culture medium containing high insulin ([…]); culture medium containing low insulin (50 μU/mL) levels. We then measured the fraction of remaining triglycerides after 1 and 2 days of treatment. […] The triglyceride removal kinetic data in Table 2 was used to calculate a defatting rate for each defatting condition. For this purpose, the fraction of initial triglyceride remaining was plotted as a function of time on a semi-log plot, which yielded linear curves (not shown). The slopes of these lines, which correspond to the first order rate of decay or triglyceride clearance from the cells during defatting, are shown in Table 2 for each defatting condition tested. From these values, we can predict the fraction of intracellular lipid remaining after any treatment time using the simple equation: Triglyceride Fraction Remaining=100e^−[RateConstant][TreatmentTime] (equation 1)

| Compound | serum ALT levels ([1]; 3 hours after transplantation, 12 hours cold preservation) | liver injury ([1]; 24 hours after transplantation) | protection against I/R injury by phase ([1]; acute (3 hours) and subacute (24 hours) phase) | recipient survival rate (recipient rats) | hemorrhagic injury (histology) [2] | CD3+CD4+ relative number of T cells in the liver ([3]; 3 hr after transplantation) | CD3+CD8+ relative number of T cells in the liver ([3]; 3 hr after transplantation) | CD3+CD4+ relative number of T cells in the liver ([3]; 24 hr after transplantation) | CD3+CD8+ relative number of T cells in the liver ([3]; 24 hr after transplantation) | numbers of CD3+ CD8+ cells in the liver between groups ([3]; any stage following transplantation) | expression level of IFN-γ mRNA in isolated CD3+ CD4+ cells (IFN-γ mRNA) | expression level of IFN-γ mRNA in isolated CD3+ CD8+ cells (IFN-γ mRNA) | serum IL-12, TNF-α and IL-10 levels ([4]; 3 hours after transplantation) | serum TNF-α levels ([4]; 24 hours after transplantation) | IFN-γ production by liver CD4+ T cells (liver CD4+ T cells) | HSP72 and HO-1 expression in hepatocytes, CD4+ and CD8+ T cells (HSP72 and HO-1) | MPO levels of liver tissue ([5]; 3 hours after transplantation) | MPO levels of liver tissue / neutrophil accumulation ([5]; 24 hours after transplantation) | effect on the defatting process (fat reduction) (steatotic hepatocytes) | effect on the defatting process (lipid removal) (steatotic hepatocytes) |
| --- | --- | --- | --- | --- | --- | --- | --- | --- | --- | --- | --- | --- | --- | --- | --- | --- | --- | --- | --- | --- |
| [Cl][Gd]([Cl])[Cl] [GdCl3, gadolinium chloride] | significantly lower than that of Sham group | did not suppress liver injury | only protected I/R injury in the acute phase | no significant difference; also recorded: did not improve the recipient survival rate | reduced hemorrhagic injury | 8.4 ± 2.7 ×10^5 | 4.2 ± 1.2 ×10^5 | 7.2 ± 2.2 ×10^5 | 5.6 ± 2.3 ×10^5 | no difference | much higher than that from HPc group | remained low in all three groups | moderated the initial increase in IL-12, TNF-α, and IL-10 significantly; also recorded: suppressed; also recorded: prevented the serum release of IL-12, TNF-α, and IL-10 | not significantly different from that of liver controls | did not suppress activation of or IFN-γ production | neither HSP72 nor HO-1 was detected | almost similar with no significant difference | no difference between the Sham group and the GdCl3-treated group; also recorded: did not suppress liver injury or neutrophil accumulation | – | – |
| hepatocyte growth factor | – | – | – | – | – | – | – | – | – | – | – | – | – | – | – | – | – | – | Some fat-reducing effects were seen | did not further enhance lipid removal |
| leptin | – | – | – | – | – | – | – | – | – | – | – | – | – | – | – | – | – | – | Some fat-reducing effects were seen | did not further enhance lipid removal |
